Measurements as given in patent publication US9012655B2, “Antimicrobial/adjuvant compounds and methods” (Denouamed, Inc., priority 2011, dated 2015).
≈ marks a conversion by molar mass, not a printed value.

How the values were obtained:
Assay type in all cases: cell-based
[1] = test system: Staphylococcus aureus NRS382; test: MIC panel of challenge pathogens (CLSI); conditions: Staphylococcus aureus
Outline: (§1)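 Broth microdilution per CLSI guidelines. Final inoculum 2-8×10^5 CFU/ml, compounds serially two-fold diluted from 128 mg/L top concentration. Incubated in the dark at 30-37° C for 24-48 h, aerobic or anaerobic as appropriate. MIC read visually as 100% inhibition endpoint; MIC50 and MIC80 also reported.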

[2] = test system: Staphylococcus aureus EUP MRSA004; test: MIC panel of challenge pathogens (CLSI); conditions: Staphylococcus aureus
Outline: as §1

[3] = test system: Staphylococcus aureus AUR58 7005; test: MIC panel of challenge pathogens (CLSI); conditions: Staphylococcus aureus
Outline: as §1

[4] = test system: Staphylococcus aureus NRS2 (ATCC700698); test: MIC panel of challenge pathogens (CLSI); conditions: Staphylococcus aureus
Outline: as §1

[5] = test system: Staphylococcus aureus AUR59 7005; test: MIC panel of challenge pathogens (CLSI); conditions: Staphylococcus aureus
Outline: as §1

Bacillus cereus NCTC6349 = test: MIC panel of challenge pathogens (CLSI); conditions: Bacillus cereus
Outline: as §1

[6] = test system: Staphylococcus aureus ATCC43300; test: MIC panel of challenge pathogens (CLSI); conditions: Staphylococcus aureus
Outline: as §1

[7] = test system: Staphylococcus aureus EUP SAU040; test: MIC panel of challenge pathogens (CLSI); conditions: Staphylococcus aureus
Outline: as §1

[8] = test system: Enterococcus faecalis ATCC51299; test: MIC panel of challenge pathogens (CLSI); conditions: Enterococcus faecalis
Outline: as §1

[9] = test system: Staphylococcus aureus NRS384; test: MIC panel of challenge pathogens (CLSI); conditions: Staphylococcus aureus
Outline: as §1

[10] = test system: Staphylococcus epidermidis NRS122; test: MIC panel of challenge pathogens (CLSI); conditions: Staphylococcus epidermidis
Outline: as §1

[11] = test system: Staphylococcus aureus EUP MRSA002; test: MIC panel of challenge pathogens (CLSI), EUP MRSA002; conditions: Staphylococcus aureus
Method: The inocula for each bacterial strain were prepared by picking 5-10 distinct colonies from the culture plates and suspending them in the appropriate broth as per Clinical and Laboratory Standards Institute (CLSI) guidelines M07-A8, M24-A or M11-A7 as appropriate. The inoculum was resuspended by vigorous shaking on a vortex mixer for 15 s. The turbidity was then adjusted to McFarland standard 0.5 ([…]). The inoculum was further diluted in the appropriate media for MIC tests to give a final inoculum in each well of 2-8×10^5 CFU/ml. MICs were tested in the appropriate broth in accordance with the appropriate CLSI guidelines.
A stock solution of each compound was prepared at a concentration of 1.28 g/L in DMSO. The stock was further diluted in the appropriate media to give a top starting concentration of 128 mg/L in the assay. 100 μL of the appropriate media, as per CLSI guidelines, was dispensed into each well in columns 2-12. 200 μL of the each compound solution (at 256 mg/L) was dispensed into each well in column 1. 100 μL aliquots were pipetted from column 1 wells and dispensed into column 2 with a multichannel pipette (±2% coefficient of variation) thus diluting two-fold. 100 μL samples were then pipetted from column 2 wells and dispensed into column 3. The process was repeated through to column 10. The final 100 μL of diluted drug from column 10 was then discarded. Row 11 acted as a positive control (no compound, but organisms added), Row 12 acted as a negative control (no compound, and no organisms added).
100 μL of the appropriate inoculum suspension in the appropriate media, as per CLSI guidelines, was added to the appropriate wells. […] All plates were incubated in the dark under aerobic or anaerobic conditions at 30-37° C. for 24-48 hours, according to the appropriate CLSI guideline. Plates were read visually 24-48 hours post inoculation. Endpoints of 100% inhibition were determined (CLSI interpretation endpoints following visual examination).
MIC50, MIC80, and 100% inhibition results are reported below in μg/mL in the following Tables, indicating each compound tested against a given species and strain: […]

## CN[C@H](CC(C)C)C(=O)N[C@H]1C(=O)N[C@@H](CC(N)=O)C(=O)N[C@H]2C(=O)N[C@H]3C(=O)N[C@H](C(=O)N[C@H](C(=O)O)c4cc(O)cc(O)c4-c4cc3ccc4O)[C@H](O)c3ccc(c(Cl)c3)Oc3cc2cc(c3O[C@@H]2O[C@H](CO)[C@@H](O)[C@H](O)[C@H]2O[C@H]2C[C@](C)(N)[C@H](O)[C@H](C)O2)Oc2ccc(cc2Cl)[C@H]1O [Vancomycin, reference compound]
[1]; NRS382, read-out: 100% inhibition
  MIC: 1 µg/mL (≈ 0.69 µM)
[1]; NRS382, read-out: MIC50 (50%)
  MIC50: 1 µg/mL (≈ 0.69 µM)
[1]; NRS382, read-out: MIC80 (80%)
  MIC80: 1 µg/mL (≈ 0.69 µM)
[2]; EUPMRSA004, read-out: 100% inhibition
  MIC: 0.5 µg/mL (≈ 0.345 µM)
[2]; EUPMRSA004, read-out: MIC50 (50%)
  MIC50: 0.5 µg/mL (≈ 0.345 µM)
[2]; EUPMRSA004, read-out: MIC80 (80%)
  MIC80: 0.5 µg/mL (≈ 0.345 µM)
[3]; AUR587005, read-out: 100% inhibition
  MIC: 1 µg/mL (≈ 0.69 µM)
[3]; AUR587005, read-out: MIC50 (50%)
  MIC50: 1 µg/mL (≈ 0.69 µM)
[3]; AUR587005, read-out: MIC80 (80%)
  MIC80: 1 µg/mL (≈ 0.69 µM)
[4]; read-out: 100% inhibition
  MIC: 1 µg/mL (≈ 0.69 µM)
[4]; read-out: MIC50 (50%)
  MIC50: 0.5 µg/mL (≈ 0.345 µM)
[4]; read-out: MIC80 (80%)
  MIC80: 1 µg/mL (≈ 0.69 µM)
[5]; AUR597005, read-out: 100% inhibition
  MIC: 1 µg/mL (≈ 0.69 µM)
[5]; AUR597005, read-out: MIC50 (50%)
  MIC50: 0.5 µg/mL (≈ 0.345 µM)
[5]; AUR597005, read-out: MIC80 (80%)
  MIC80: 0.5 µg/mL (≈ 0.345 µM)
Bacillus cereus NCTC6349; NCTC6349, read-out: 100% inhibition
  MIC: 2 µg/mL (≈ 1.38 µM)
Bacillus cereus NCTC6349; NCTC6349, read-out: MIC50 (50%)
  MIC50: 1 µg/mL (≈ 0.69 µM)
Bacillus cereus NCTC6349; NCTC6349, read-out: MIC80 (80%)
  MIC80: 2 µg/mL (≈ 1.38 µM)
[6]; ATCC43300, read-out: 100% inhibition
  MIC: 0.5 µg/mL (≈ 0.345 µM)
[6]; ATCC43300, read-out: MIC50 (50%)
  MIC50: 0.5 µg/mL (≈ 0.345 µM)
[6]; ATCC43300, read-out: MIC80 (80%)
  MIC80: 0.5 µg/mL (≈ 0.345 µM)
[7]; EUPSAU040, read-out: 100% inhibition
  MIC: 1 µg/mL (≈ 0.69 µM)
[7]; EUPSAU040, read-out: MIC50 (50%)
  MIC50: 1 µg/mL (≈ 0.69 µM)
[7]; EUPSAU040, read-out: MIC80 (80%)
  MIC80: 1 µg/mL (≈ 0.69 µM)
[8]; ATCC51299, read-out: 100% inhibition
  MIC: > 16 µg/mL
[8]; ATCC51299, read-out: MIC50 (50%)
  MIC50: > 16 µg/mL
[8]; ATCC51299, read-out: MIC80 (80%)
  MIC80: > 16 µg/mL
[9]; NRS384, read-out: 100% inhibition
  MIC: 1 µg/mL (≈ 0.69 µM)
[9]; NRS384, read-out: MIC50 (50%)
  MIC50: 1 µg/mL (≈ 0.69 µM)
[9]; NRS384, read-out: MIC80 (80%)
  MIC80: 1 µg/mL (≈ 0.69 µM)
[10]; NRS122, read-out: 100% inhibition
  MIC: 2 µg/mL (≈ 1.38 µM)
[10]; NRS122, read-out: MIC50 (50%)
  MIC50: 1 µg/mL (≈ 0.69 µM)
[10]; NRS122, read-out: MIC80 (80%)
  MIC80: 1 µg/mL (≈ 0.69 µM)
[11]; EUPMRSA002, read-out: 100% inhibition
  MIC: 0.5 µg/mL (≈ 0.345 µM)
[11]; EUPMRSA002, read-out: MIC50 (50%)
  MIC50: 0.5 µg/mL (≈ 0.345 µM)
[11]; EUPMRSA002, read-out: MIC80 (80%)
  MIC80: 0.5 µg/mL (≈ 0.345 µM)
